Test results as given in patent US20120121591A1 (priority 2009, published 2012).
Where two headings read alike, the source gives them in different places.

Tests used:
Type in all cases: cell-based
hKv1.3 = hKv1.3 (Homo sapiens, UniProt P22001); assay: cell-based; conditions: Kv1.3 (IWQ) IC50 (nM, Avg)
[1] = tested on: IL-2 secretion from T cells in human whole blood
[2] = tested on: IFN-g secretion from T cells in human whole blood
[3] = read-out: WB (IL-2) IC50 (nM, Avg)
[4] = read-out: WB (IFNg) IC50 (nM, Avg)

hKv1.3, sequence (P22001 whole entry): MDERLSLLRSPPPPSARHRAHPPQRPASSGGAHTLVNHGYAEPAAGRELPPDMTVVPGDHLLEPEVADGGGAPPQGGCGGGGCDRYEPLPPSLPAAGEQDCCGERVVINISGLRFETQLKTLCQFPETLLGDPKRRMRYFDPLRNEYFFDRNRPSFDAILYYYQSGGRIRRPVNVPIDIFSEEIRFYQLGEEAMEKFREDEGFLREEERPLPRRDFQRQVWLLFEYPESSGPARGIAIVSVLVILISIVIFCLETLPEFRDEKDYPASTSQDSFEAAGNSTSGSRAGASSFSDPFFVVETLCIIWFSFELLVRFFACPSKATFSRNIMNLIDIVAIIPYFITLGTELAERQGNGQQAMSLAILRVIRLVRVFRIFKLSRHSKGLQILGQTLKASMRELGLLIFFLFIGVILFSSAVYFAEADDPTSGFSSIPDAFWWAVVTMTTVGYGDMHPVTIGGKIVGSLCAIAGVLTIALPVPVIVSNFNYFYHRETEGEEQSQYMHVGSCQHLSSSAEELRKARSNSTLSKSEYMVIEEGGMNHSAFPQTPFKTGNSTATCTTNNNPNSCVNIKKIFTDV

Q: Which results are given for `CCC[C@@H]1NC(=O)[C@H](CO)NC(=O)[C@H](Cc2c[nH]cn2)NC(=O)[C@H](CCCCN)NC(=O)[C@@H]2CSSC[C@@H]3NC(=O)[C@H]([C@@H](C)O)NC(=O)[C@H](CCCCN)NC(=O)[C@H](CCCNC(=N)N)NC(=O)[C@H](CSSC[C@H](NC(=O)[C@H](CCCNC(=N)N)NC(=O)[C@H](CO)NC(=O)[C@H](CCCCN)NC(=O)[C@@H]4CCCN4C(=O)[C@H]([C@@H](C)CC)NC(=O)[C@H]([C@@H](C)O)NC(=O)[C@H](CC(=O)O)NC(=O)[C@H]([C@@H](C)CC)NC(=O)[C@@H](NC(=O)[C@H](CO)NC(=O)[C@@H](N)CCCNC(=N)N)CSSC[C@@H](C(=O)NCCC(=O)O)NC(=O)[C@H]([C@@H](C)O)NC(=O)CNC3=O)C(=O)N[C@@H]([C@@H](C)O)C(=O)N[C@@H](C)C(=O)N[C@@H](Cc3ccccc3)C(=O)N[C@@H](CCCCN)C(=O)N2)NC(=O)[C@H](Cc2ccccc2)NC(=O)[C@H](CO)NC(=O)[C@H](CC(C)C)NC(=O)[C@H](CCCNC(=N)N)NC(=O)[C@H](Cc2ccc(O)cc2)NC(=O)[C@H](CCCCN)NC1=O` [[Lys16,Nva21]ShK-betaAla]?
A: IC50 (hKv1.3): 12.6 nM; IC50 [1, 3]: 0.304 nM; IC50 [2, 4]: 0.231 nM

Q: Which results are given for `CC[C@H](C)[C@@H]1NC(=O)[C@@H](NC(=O)[C@H](CO)NC(=O)[C@@H](N)CCCNC(=N)N)CSSC[C@@H](C(=O)O)NC(=O)[C@H]([C@@H](C)O)NC(=O)CNC(=O)[C@@H]2CSSC[C@@H]3NC(=O)[C@H](CCC(N)=O)NC(=O)[C@H](Cc4ccccc4)NC(=O)[C@H](C)NC(=O)[C@H](CCCCN)NC(=O)[C@H](CSSC[C@H](NC(=O)[C@H](Cc4ccccc4)NC(=O)[C@H](CO)NC(=O)[C@H](CC(C)C)NC(=O)[C@H](CCCNC(=N)N)NC(=O)[C@H](Cc4ccc(O)cc4)NC(=O)[C@H](CCCCN)NC(=O)[C@H](CCSC)NC(=O)[C@H](CO)NC(=O)[C@H](Cc4c[nH]cn4)NC(=O)[C@H](CCCCN)NC3=O)C(=O)N[C@@H](CCCNC(=N)N)C(=O)N[C@@H](CCCCN)C(=O)N[C@@H]([C@@H](C)O)C(=O)N2)NC(=O)[C@H](CCCNC(=N)N)NC(=O)[C@H](CO)NC(=O)[C@H](CCCCN)NC(=O)[C@@H]2CCCN2C(=O)[C@H]([C@@H](C)CC)NC(=O)[C@H]([C@@H](C)O)NC(=O)[C@H](CC(=O)O)NC1=O` [[Lys13]ShK]?
A: IC50 (hKv1.3): 0.157 nM; IC50 [1, 3]: 0.257 nM; IC50 [2, 4]: 0.363 nM

Q: What does the source list for `CCCC[C@@H]1NC(=O)[C@H](CO)NC(=O)[C@H](Cc2c[nH]cn2)NC(=O)[C@H](CCC(=O)O)NC(=O)[C@@H]2CSSC[C@@H]3NC(=O)[C@H]([C@@H](C)O)NC(=O)[C@H](CCCCN)NC(=O)[C@H](CCCNC(=N)N)NC(=O)[C@H](CSSC[C@H](NC(=O)[C@H](CCCNC(=N)N)NC(=O)[C@H](CO)NC(=O)[C@H](CCCCN)NC(=O)[C@@H]4CCCN4C(=O)[C@H]([C@@H](C)CC)NC(=O)[C@H]([C@@H](C)O)NC(=O)[C@H](CC(=O)O)NC(=O)[C@H]([C@@H](C)CC)NC(=O)[C@@H](NC(=O)[C@H](CO)NC(=O)[C@@H](N)CCCNC(=N)N)CSSC[C@@H](C(N)=O)NC(=O)[C@H]([C@@H](C)O)NC(=O)CNC3=O)C(=O)N[C@@H]([C@@H](C)O)C(=O)N[C@@H](C)C(=O)N[C@@H](C)C(=O)N[C@@H](CCCCN)C(=O)N2)NC(=O)[C@H](Cc2ccccc2)NC(=O)[C@H](CO)NC(=O)[C@H](CC(C)C)NC(=O)[C@H](CCCNC(=N)N)NC(=O)[C@H](Cc2ccc(O)cc2)NC(=O)[C@H](CCCCN)NC1=O` [[Glu18,Ala15,Lys16,Nle21]ShK-amide]?
A: IC50 (hKv1.3): 0.202 nM; IC50 [1, 3]: 1.35 nM; IC50 [2, 4]: 1.29 nM

Q: Which IC50 (hKv1.3) does the source give for `CC[C@H](C)[C@@H]1NC(=O)[C@@H](NC(=O)[C@H](CO)NC(=O)[C@@H](N)CCCNC(=N)N)CSSC[C@@H](C(=O)O)NC(=O)[C@H]([C@@H](C)O)NC(=O)CNC(=O)[C@@H]2CSSC[C@@H]3NC(=O)[C@H](CCC(N)=O)NC(=O)[C@H](Cc4ccccc4)NC(=O)[C@H](C)NC(=O)[C@H]([C@@H](C)O)NC(=O)[C@H](CSSC[C@H](NC(=O)[C@H](Cc4ccccc4)NC(=O)[C@H](CO)NC(=O)[C@H](CC(C)C)NC(=O)[C@H](CCCNC(=N)N)NC(=O)[C@H](Cc4ccc(O)cc4)NC(=O)[C@H](CCCCN)NC(=O)[C@H](CCSC)NC(=O)[C@H](CO)NC(=O)[C@H](Cc4c[nH]cn4)NC(=O)[C@H](CCCCN)NC3=O)C(=O)N[C@@H](CCCNC(=N)N)C(=O)N[C@@H](CCCCN)C(=O)N[C@@H]([C@@H](C)O)C(=O)N2)NC(=O)[C@H](CCCNC(=N)N)NC(=O)[C@H](CCCCN)NC(=O)[C@H](CCCCN)NC(=O)[C@@H]2CCCN2C(=O)[C@H]([C@@H](C)CC)NC(=O)[C@H]([C@@H](C)O)NC(=O)[C@H](CC(=O)O)NC1=O` [[Lys10]ShK] here?
A: 0.174 nM

Q: And the IC50 [1, 3]?
A: 0.052 nM

Q: What about the IC50 [2, 4] of the same compound?
A: 0.082 nM

Q: `CC[C@H](C)[C@@H]1NC(=O)[C@@H](NC(=O)[C@H](CO)NC(=O)[C@@H](N)CCCNC(=N)N)CSSC[C@@H](C(=O)O)NC(=O)[C@H]([C@@H](C)O)NC(=O)CNC(=O)[C@@H]2CSSC[C@@H]3NC(=O)[C@H](CCCCN)NC(=O)[C@H](Cc4ccccc4)NC(=O)[C@H](C)NC(=O)[C@H]([C@@H](C)O)NC(=O)[C@H](CSSC[C@H](NC(=O)[C@H](Cc4ccccc4)NC(=O)[C@H](CO)NC(=O)[C@H](CC(C)C)NC(=O)[C@H](CCCNC(=N)N)NC(=O)[C@H](Cc4ccc(O)cc4)NC(=O)[C@H](CCCCN)NC(=O)[C@H](CCSC)NC(=O)[C@H](CO)NC(=O)[C@H](Cc4c[nH]cn4)NC(=O)[C@H](CCCNC(=N)N)NC3=O)C(=O)N[C@@H](CCCNC(=N)N)C(=O)N[C@@H](CCCCN)C(=O)N[C@@H]([C@@H](C)O)C(=O)N2)NC(=O)[C@H](CCCNC(=N)N)NC(=O)[C@H](CO)NC(=O)[C@H](CCCCN)NC(=O)[C@@H]2CCCN2C(=O)[C@H]([C@@H](C)CC)NC(=O)[C@H]([C@@H](C)O)NC(=O)[C@H](CC(=O)O)NC1=O` [[Lys16,Arg18]ShK] was tested. Which IC50 (hKv1.3) did it give?
A: 0.425 nM

Q: And the IC50 [1, 3]?
A: 0.077 nM

Q: And the IC50 [2, 4]?
A: 0.097 nM

Q: `CC[C@H](C)[C@@H]1NC(=O)[C@@H](NC(=O)[C@H](CO)NC(=O)[C@@H](N)CCCNC(=N)N)CSSC[C@@H](C(=O)O)NC(=O)[C@H]([C@@H](C)O)NC(=O)CNC(=O)[C@@H]2CSSC[C@@H]3NC(=O)[C@H](CCC(N)=O)NC(=O)[C@H](Cc4ccccc4)NC(=O)[C@H](C)NC(=O)[C@H]([C@@H](C)O)NC(=O)[C@H](CSSC[C@H](NC(=O)[C@H](Cc4ccccc4)NC(=O)[C@H](CO)NC(=O)[C@H](CC(C)C)NC(=O)[C@H](CCCNC(=N)N)NC(=O)[C@H](Cc4ccc(O)cc4)NC(=O)[C@H](CCCCN)NC(=O)[C@H](CCSC)NC(=O)[C@H](CO)NC(=O)[C@H](Cc4c[nH]cn4)NC(=O)[C@H](CCCCN)NC3=O)C(=O)N[C@@H](CCCCN)C(=O)N[C@@H](CCCCN)C(=O)N[C@@H]([C@@H](C)O)C(=O)N2)NC(=O)[C@H](CCCNC(=N)N)NC(=O)[C@H](CO)NC(=O)[C@H](CCCCN)NC(=O)[C@@H]2CCCN2C(=O)[C@H]([C@@H](C)CC)NC(=O)[C@H]([C@@H](C)O)NC(=O)[C@H](CC(=O)O)NC1=O` [[Lys29]ShK] was tested. Which IC50 (hKv1.3) did it give?
A: 0.158 nM

Q: And the IC50 [1, 3]?
A: 0.04 nM

Q: And the IC50 [2, 4]?
A: 0.071 nM

Q: How did the IC50 (hKv1.3) turn out when `CCCC[C@@H]1NC(=O)[C@H](CO)NC(=O)[C@H](Cc2c[nH]cn2)NC(=O)[C@H](CCCCN)NC(=O)[C@@H]2CSSC[C@@H]3NC(=O)[C@H]([C@@H](C)O)NC(=O)[C@H](CCCCN)NC(=O)[C@H](CCCNC(=N)N)NC(=O)[C@H](CSSC[C@H](NC(=O)[C@H](CCCNC(=N)N)NC(=O)[C@H](CO)NC(=O)[C@H](CCCCN)NC(=O)[C@@H]4CCCN4C(=O)[C@H]([C@@H](C)CC)NC(=O)[C@H]([C@@H](C)O)NC(=O)[C@H](CC(=O)O)NC(=O)[C@H]([C@@H](C)CC)NC(=O)[C@@H](NC(=O)[C@H](CO)NC(=O)[C@@H](N)CCCNC(=N)N)CSSC[C@@H](C(N)=O)NC(=O)[C@H]([C@@H](C)O)NC(=O)CNC3=O)C(=O)N[C@@H]([C@@H](C)O)C(=O)N[C@@H](C)C(=O)N[C@@H](Cc3ccccc3)C(=O)N[C@@H](CCCCN)C(=O)N2)NC(=O)[C@H](Cc2ccccc2)NC(=O)[C@H](CO)NC(=O)[C@H](CC(C)C)NC(=O)[C@H](CCCNC(=N)N)NC(=O)[C@H](Cc2ccc(O)cc2)NC(=O)[C@H](CCCCN)NC1=O` [[Lys16, Nle21]ShK-amide] was run?
A: 0.153 nM

Q: And the IC50 ([1]; read-out: WB (IL-2) IC50)?
A: 0.82 nM

Q: And the IC50 [1, 3]?
A: 0.823 nM

Q: And the IC50 [2, 4]?
A: 1.1 nM

Q: With `CC[C@H](C)[C@@H]1NC(=O)[C@@H](NC(=O)[C@H](CO)NC(=O)[C@@H](N)CCCNC(=N)N)CSSC[C@@H](C(=O)O)NC(=O)[C@H]([C@@H](C)O)NC(=O)CNC(=O)[C@@H]2CSSC[C@@H]3NC(=O)[C@H](CCC(=O)O)NC(=O)[C@H](Cc4ccccc4)NC(=O)[C@H](C)NC(=O)[C@H]([C@@H](C)O)NC(=O)[C@H](CSSC[C@H](NC(=O)[C@H](Cc4ccccc4)NC(=O)[C@H](CO)NC(=O)[C@H](CC(C)C)NC(=O)[C@H](CCCNC(=N)N)NC(=O)[C@H](Cc4ccc(O)cc4)NC(=O)[C@H](CCCCN)NC(=O)[C@H](CCSC)NC(=O)[C@H](CO)NC(=O)[C@H](Cc4c[nH]cn4)NC(=O)[C@H](CCCCN)NC3=O)C(=O)N[C@@H](CCCNC(=N)N)C(=O)N[C@@H](CCCCN)C(=O)N[C@@H]([C@@H](C)O)C(=O)N2)NC(=O)[C@H](CCCNC(=N)N)NC(=O)[C@H](CO)NC(=O)[C@H](CCCCN)NC(=O)[C@@H]2CCCN2C(=O)[C@H]([C@@H](C)CC)NC(=O)[C@H]([C@@H](C)O)NC(=O)[C@H](CC(=O)O)NC1=O` [[Glu16]ShK] as the compound, how does the IC50 (hKv1.3) read?
A: 0.206 nM

Q: What about the IC50 [1, 3] of the same compound?
A: 0.351 nM

Q: And the IC50 ([2]; read-out: WB (IFNg) IC5- (nM, Avg))?
A: 0.373 nM
